Molecular target: T1, GPR84 (Homo sapiens, UniProt Q9NQS5)
T1 construct: expressed in transfected cells
Assay: GPR84 [35S]GTPγS binding assay, HEPES buffer
Assay type: biochemical
Settings: 3,3′ di indolylmethane at EC80, membranes from stable cell line over expressing GPR84
Procedure: 1.1. Cell Based Assay: GTp-γ S Binding Assay.
The following assay can be used for determination of GPR84 activation.
The assay is performed in a 96 well plate where the following reagents are added. […] In a last step, 30 μL of a mixture consisting of membranes-GTPγS-SpA beads is added [mixture consists of 20 μg/well membranes derived from stable cell line over expressing GPR84 (membranes are pre-incubated with 0.1 μM GDP for 15 min at 4° C.), 0.1 nM [^35S]GTPγS (Perkin Elmer, NEG030) and 0.5 mg/well PVT-WGA SpA beads (Perkin Elmer, RPNQ0001)]. All components are diluted in assay buffer containing 20 mM HEPES pH 7.4; 5 mM MgCl2; 250 mM NaCl; 0.05% BSA; 75 ug/mL saponin Reactions are incubated for 90 min at room temperature followed by centrifugation at 2000 rpm during 15 min. Plates are read on a Topcount reader (Perkin Elmer) immediately after centrifugation (readout time, 1 min/well).

T1 sequence (Q9NQS5 whole entry): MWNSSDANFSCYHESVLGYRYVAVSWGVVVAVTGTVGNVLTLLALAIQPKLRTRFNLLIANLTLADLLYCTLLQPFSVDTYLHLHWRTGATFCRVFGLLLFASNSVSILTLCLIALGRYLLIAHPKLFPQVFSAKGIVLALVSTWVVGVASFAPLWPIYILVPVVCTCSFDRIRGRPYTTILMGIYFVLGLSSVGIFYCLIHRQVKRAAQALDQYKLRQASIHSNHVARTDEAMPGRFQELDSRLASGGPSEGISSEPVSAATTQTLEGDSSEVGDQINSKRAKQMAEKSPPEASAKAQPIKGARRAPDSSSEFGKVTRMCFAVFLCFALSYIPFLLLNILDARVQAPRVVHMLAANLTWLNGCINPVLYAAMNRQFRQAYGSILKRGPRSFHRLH

First: COc1ccc2c(c1)CCn1c-2cc(OCC2Cc3ccccc3O2)nc1=O (stereo not drawn) [compound 5, 2-(2,3-dihydro-benzofuran-2-ylmethoxy)-9-methoxy-6,7-dihydro-pyrimido[6,1-a]isoquinolin-4-one]
Second: CC(C)(Oc1ccc2c(c1)CCn1c-2cc(OCC2COc3ccccc3O2)nc1=O)C(N)=O (stereo not drawn) [compound 49, 2-[2-(2,3-dihydro-benzo[1,4]dioxin-2-ylmethoxy)-4-oxo-6,7-dihydro-4H-pyrimido[6,1-a]isoquinolin-9-yloxy]-2-methyl-propionamide]
The IC50 of the first is higher: 500 to 1000 nM for the first, 0.01 to 100 nM for the second. The second is the more potent here.

Compared with `O=c1nc(OCC2CCCO2)cc2n1CCc1cc(OCc3ccccc3)ccc1-2` (stereo not drawn) [compound 7, 9-benzyloxy-2-(tetrahydro-furan-2-ylmethoxy)-6,7-dihydro-pyrimido[6,1-a]isoquinolin-4-one], `O=c1nc(OCC2CCCO2)cc2n1CCc1cc(OCCc3ccccc3)ccc1-2` (stereo not drawn) [compound 12, 9-phenethyloxy-2-(tetrahydro-furan-2-ylmethoxy)-6,7-dihydro-pyrimido[6,1-a]isoquinolin-4-one] is higher in IC50: 0.01 to 100 nM for the first, 100 to 500 nM for the second.

`O=c1nc(OCC2CCCO2)cc2n1CCc1cc(OCc3cccnc3)ccc1-2` (stereo not drawn) [compound 8, 9-(pyridin-3-ylmethoxy)-2-(tetrahydro-furan-2-ylmethoxy)-6,7-dihydro-pyrimido[6,1-a]isoquinolin-4-one] and `O=c1nc(OCC2CCCO2)cc2n1CCc1cc(OCc3ccncc3)ccc1-2` (stereo not drawn) [compound 13, 9-(pyridin-4-ylmethoxy)-2-(tetrahydro-furan-2-ylmethoxy)-6,7-dihydro-pyrimido[6,1-a]isoquinolin-4-one] fall in the same range of IC50: 100 to 500 nM for the first, 100 to 500 nM for the second.

`CCCCOc1ccc2c(c1)CCn1c-2cc(OCC2CCCO2)nc1=O` (stereo not drawn) [compound 10, 9-butoxy-2-(tetrahydro-furan-2-ylmethoxy)-6,7-dihydro-pyrimido[6,1-a]isoquinolin-4-one] and `O=c1nc(OCC2CCCO2)cc2n1CCc1cc(OCC3CC3)ccc1-2` (stereo not drawn) [compound 11, 9-cyclopropylmethoxy-2-(tetrahydro-furan-2-ylmethoxy)-6,7-dihydro-pyrimido[6,1-a]isoquinolin-4-one] fall in the same range of IC50: 100 to 500 nM for the first, 100 to 500 nM for the second.

`O=c1nc(OCC2CCCO2)cc2n1CCc1cc(OCc3ccccn3)ccc1-2` (stereo not drawn) [compound 14, 9-(pyridin-2-ylmethoxy)-2-(tetrahydro-furan-2-ylmethoxy)-6,7-dihydro-pyrimido[6,1-a]isoquinolin-4-one] and `O=c1nc(OCC2CCCO2)cc2n1CCc1cc(OCc3ccccc3Cl)ccc1-2` (stereo not drawn) [compound 23, 9-(2-chloro-benzyloxy)-2-(tetrahydro-furan-2-ylmethoxy)-6,7-dihydro-pyrimido[6,1-a]isoquinolin-4-one] fall in the same range of IC50: 100 to 500 nM for the first, 100 to 500 nM for the second.

`N#Cc1ccc(COc2ccc3c(c2)CCn2c-3cc(OCC3CCCO3)nc2=O)cc1` (stereo not drawn) [compound 17, 4-[4-oxo-2-(tetrahydro-furan-2-ylmethoxy)-6,7-dihydro-4H-pyrimido[6,1-a]isoquinolin-9-yloxymethyl]-benzonitrile] and `O=c1nc(OCC2CCCO2)cc2n1CCc1cc(OCc3ccc(Cl)cc3)ccc1-2` (stereo not drawn) [compound 21, 9-(4-chloro-benzyloxy)-2-(tetrahydro-furan-2-ylmethoxy)-6,7-dihydro-pyrimido[6,1-a]isoquinolin-4-one] fall in the same range of IC50: 0.01 to 100 nM for the first, 0.01 to 100 nM for the second.

First: N#Cc1cccc(COc2ccc3c(c2)CCn2c-3cc(OCC3CCCO3)nc2=O)c1 (stereo not drawn) [compound 19, 3-[4-oxo-2-(tetrahydro-furan-2-ylmethoxy)-6,7-dihydro-4H-pyrimido[6,1-a]isoquinolin-9-yloxymethyl]-benzonitrile]
Second: O=c1nc(OCC2CCCO2)cc2n1CCc1cc(OCc3cccc(Cl)c3)ccc1-2 (stereo not drawn) [compound 22, 9-(3-chloro-benzyloxy)-2-(tetrahydro-furan-2-ylmethoxy)-6,7-dihydro-pyrimido[6,1-a]isoquinolin-4-one]
The IC50 of the first is higher: 100 to 500 nM for the first, 0.01 to 100 nM for the second.

`N#Cc1ccccc1COc1ccc2c(c1)CCn1c-2cc(OCC2CCCO2)nc1=O` (stereo not drawn) [compound 20, 2-[4-oxo-2-(tetrahydro-furan-2-ylmethoxy)-6,7-dihydro-4H-pyrimido[6,1-a]isoquinolin-9-yloxymethyl]-benzonitrile] and `Cc1ccccc1COc1ccc2c(c1)CCn1c-2cc(OCC2CCCO2)nc1=O` (stereo not drawn) [compound 39, 9-(2-methyl-benzyloxy)-2-(tetrahydro-furan-2-ylmethoxy)-6,7-dihydro-pyrimido[6,1-a]isoquinolin-4-one] fall in the same range of IC50: 0.01 to 100 nM for the first, 0.01 to 100 nM for the second.

First: O=c1nc(OCC2CCCO2)cc2n1CCc1cc(OCc3ccc(F)cc3)ccc1-2 (stereo not drawn) [compound 24, 9-(4-fluoro-benzyloxy)-2-(tetrahydro-furan-2-ylmethoxy)-6,7-dihydro-pyrimido[6,1-a]isoquinolin-4-one]
Second: Cc1ccc(COc2ccc3c(c2)CCn2c-3cc(OCC3CCCO3)nc2=O)cc1 (stereo not drawn) [compound 35, 9-(4-methyl-benzyloxy)-2-(tetrahydro-furan-2-ylmethoxy)-6,7-dihydro-pyrimido[6,1-a]isoquinolin-4-one]
The IC50 of the first is higher: 100 to 500 nM for the first, 0.01 to 100 nM for the second. The second is the more potent here.

`O=c1nc(OCC2CCCO2)cc2n1CCc1cc(OCc3ccccc3[N+](=O)[O-])ccc1-2` (stereo not drawn) [compound 25, 9-(2-nitro-benzyloxy)-2-(tetrahydro-furan-2-ylmethoxy)-6,7-dihydro-pyrimido[6,1-a]isoquinolin-4-one] and `O=c1nc(OCC2CCCO2)cc2n1CCc1cc(OCc3ccc([N+](=O)[O-])cc3)ccc1-2` (stereo not drawn) [compound 33, 9-(4-nitro-benzyloxy)-2-(tetrahydro-furan-2-ylmethoxy)-6,7-dihydro-pyrimido[6,1-a]isoquinolin-4-one] fall in the same range of IC50: 0.01 to 100 nM for the first, 0.01 to 100 nM for the second.

First: COC(=O)c1ccc(COc2ccc3c(c2)CCn2c-3cc(OCC3CCCO3)nc2=O)cc1 (stereo not drawn) [compound 26, 4-[4-oxo-2-(tetrahydro-furan-2-ylmethoxy)-6,7-dihydro-4H-pyrimido[6,1-a]isoquinolin-9-yloxymethyl]-benzoic acid methyl ester]
Second: COC(=O)c1cccc(COc2ccc3c(c2)CCn2c-3cc(OCC3CCCO3)nc2=O)c1 (stereo not drawn) [compound 27, 3-[4-oxo-2-(tetrahydro-furan-2-ylmethoxy)-6,7-dihydro-4H-pyrimido[6,1-a]isoquinolin-9-yloxymethyl]-benzoic acid methyl ester]
The IC50 of the first is higher: 100 to 500 nM for the first, 0.01 to 100 nM for the second. The second is the more potent here.

`O=c1nc(OCC2COc3ccccc3O2)cc2n1CCc1cc(OCc3ccccn3)ccc1-2` (stereo not drawn) [compound 28, 2-(2,3-dihydro-benzo[1,4]dioxin-2-ylmethoxy)-9-(pyridin-2-ylmethoxy)-6,7-dihydro-pyrimido[6,1-a]isoquinolin-4-one] and `O=c1nc(OCC2COc3ccccc3O2)cc2n1CCc1cc(OCC3COc4ccccc4O3)ccc1-2` (stereo not drawn) [compound 30, 2,9-bis-(2,3-dihydro-benzo[1,4]dioxin-2-ylmethoxy)-6,7-dihydro-pyrimido[6,1-a]isoquinolin-4-one] fall in the same range of IC50: 0.01 to 100 nM for the first, 0.01 to 100 nM for the second.

First: CC(C)(C)OC(=O)COc1ccc2c(c1)CCn1c-2cc(OCC2COc3ccccc3O2)nc1=O (stereo not drawn) [compound 29, [2-(2,3-dihydro-benzo[1,4]dioxin-2-ylmethoxy)-4-oxo-6,7-dihydro-4H-pyrimido[6,1-a]isoquinolin-9-yloxy]-acetic acid tert-butyl ester]
Second: CC(C)(Oc1ccc2c(c1)CCn1c-2cc(OCC2COc3ccccc3O2)nc1=O)C(=O)N1CCOCC1 (stereo not drawn) [compound 50, 2-(2,3-dihydro-benzo[1,4]dioxin-2-ylmethoxy)-9-(1,1-dimethyl-2-morpholin-4-yl-2-oxo-ethoxy)-6,7-dihydro-pyrimido[6,1-a]isoquinolin-4-one]
The IC50 of the first is lower: 0.01 to 100 nM for the first, 500 to 1000 nM for the second. The first is the more potent here.

`O=c1nc(OCC2CCCO2)cc2n1CCc1cc(OCc3ccc4ccccc4c3)ccc1-2` (stereo not drawn) [compound 37, 9-(naphthalen-2-ylmethoxy)-2-(tetrahydro-furan-2-ylmethoxy)-6,7-dihydro-pyrimido[6,1-a]isoquinolin-4-one] and `O=c1nc(OCC2CCCO2)cc2n1CCc1cc(OCCOc3ccccc3Cl)ccc1-2` (stereo not drawn) [compound 43, 9-[2-(2-chloro-phenoxy)-ethoxy]-2-(tetrahydro-furan-2-ylmethoxy)-6,7-dihydro-pyrimido[6,1-a]isoquinolin-4-one] fall in the same range of IC50: 0.01 to 100 nM for the first, 0.01 to 100 nM for the second.

`COc1ccccc1OCCOc1ccc2c(c1)CCn1c-2cc(OCC2CCCO2)nc1=O` (stereo not drawn) [compound 40, 9-[2-(2-methoxy-phenoxy)-ethoxy]-2-(tetrahydro-furan-2-ylmethoxy)-6,7-dihydro-pyrimido[6,1-a]isoquinolin-4-one] and `COc1cccc(OCCOc2ccc3c(c2)CCn2c-3cc(OCC3CCCO3)nc2=O)c1` (stereo not drawn) [compound 41, 9-[2-(3-methoxy-phenoxy)-ethoxy]-2-(tetrahydro-furan-2-ylmethoxy)-6,7-dihydro-pyrimido[6,1-a]isoquinolin-4-one] fall in the same range of IC50: 0.01 to 100 nM for the first, 0.01 to 100 nM for the second.

`COc1ccc(OCCOc2ccc3c(c2)CCn2c-3cc(OCC3CCCO3)nc2=O)cc1` (stereo not drawn) [compound 42, 9-[2-(4-methoxy-phenoxy)-ethoxy]-2-(tetrahydro-furan-2-ylmethoxy)-6,7-dihydro-pyrimido[6,1-a]isoquinolin-4-one] and `O=c1nc(OCC2CCCO2)cc2n1CCc1cc(OCCOc3ccc(Cl)cc3)ccc1-2` (stereo not drawn) [compound 45, 9-[2-(4-chloro-phenoxy)-ethoxy]-2-(tetrahydro-furan-2-ylmethoxy)-6,7-dihydro-pyrimido[6,1-a]isoquinolin-4-one] fall in the same range of IC50: 0.01 to 100 nM for the first, 0.01 to 100 nM for the second.

For `O=c1nc(OCC2CCCO2)cc2n1CCc1cc(OCCOc3cccc(Cl)c3)ccc1-2` (stereo not drawn) [compound 44, 9-[2-(3-chloro-phenoxy)-ethoxy]-2-(tetrahydro-furan-2-ylmethoxy)-6,7-dihydro-pyrimido[6,1-a]isoquinolin-4-one], the IC50 was 0.01 to 100 nM.

From US9708312B2, “Dihydropyrimidinoisoquinolinones and pharmaceutical compositions thereof for the treatment of inflammatory disorders (GPR84 antagonists)” (GALAPAGOS NV, priority 2012, dated 2017)
